# According to patent US9447100B2, “Substituted pyrazolo[1,5-A] pyrimidines as calcium receptor modulating agents” (Takeda Pharmaceutical Company Limited, priority 2002, dated 2016):
# Counter-ions that a name gives are not always drawn.
row,melting point [°C],Compound
1,155 to 156,"CCC1(NC(=O)c2cnn3c2NC(c2ccccc2)CC3(C)C)CCS(=O)(=O)CC1 (stereo not shown) [Example 617, N-(4-ethyl-1,1-dioxidotetrahydro-2H-thiopyran-4-yl)-7,7-dimethyl-5-phenyl-4,5,6,7-tetrahydropyrazolo[1,5-a]pyrimidine-3-carboxamide]"
2,203 to 204,"CCC(CC)(NC(=O)c1c(C)nn2c1N[C@H](c1ccccc1F)CC2(C)C)c1ccc(C)cc1 (as salt: HCl) [Example 1083, (5S)-N-(1-ethyl-1-(4-methylphenyl)propyl)-5-(2-fluorophenyl)-2,7,7-trimethyl-4,5,6,7-tetrahydropyrazolo[1,5-a]pyrimidine-3-carboxamide]"
3,159 to 160,"CCC(CC)(NC(=O)c1cnn2c1N[C@@H](c1ccccc1)CC2(C)C)c1ccc(CO)cc1 (as salt: HCl) [Example 1077, (5R)-N-(1-ethyl-1-(4-(hydroxymethyl)phenyl)propyl)-7,7-dimethyl-5-phenyl-4,5,6,7-tetrahydropyrazolo[1,5-a]pyrimidine-3-carboxamide]"
4,118 to 120,"CCC1(CC)C[C@@H](OCc2ccccc2)CN1C(=O)c1cnn2c1N[C@@H](c1ccccc1)CC2(C)C [Example 1103, (5R)-3-(((4R)-4-(benzyloxy)-2,2-diethyl-1-pyrrolidinyl)carbonyl)-7,7-dimethyl-5-phenyl-4,5,6,7-tetrahydropyrazolo[1,5-a]pyrimidine]"
5,146 to 147,"CCC(CC)(NC(=O)c1c(C)nn2c1NC(c1ccccc1)CC2(C)C)c1ccc(CO)cc1 (stereo not shown) [Example 955, N-(1-ethyl-1-(4-(hydroxy-methyl)phenyl)propyl)-2,7,7-trimethyl-5-phenyl-4,5,6,7-tetrahydropyrazolo[1,5-a]pyrimidine-3-carboxamide]"
6,274 to 275,O=C(NC12CC3CC(CC(C3)C1)C2)c1cnn2c1NC(c1ccccc1)CC21CCCCC1 (stereo not shown)
7,135 to 136,"CCOC(=O)CCc1ccc(C(CC)(CC)NC(=O)c2cnn3c2NC(c2ccccc2)CC3(C)C)cc1 (stereo not shown) [Example 759, ethyl 3-(4-(1-(((7,7-dimethyl-5-phenyl-4,5,6,7-tetrahydropyrazolo[1,5-a]pyrimidin-3-yl)carbonyl)amino)-1-ethylpropyl)phenyl)propanoate]"
8,171 to 172,"CCC(CC)(NC(=O)c1c(C)nn2c1NC(c1cccs1)CC2(C)C)c1ccccc1 (stereo not shown) (as salt: HCl) [Example 958, N-(1-ethyl-1-phenylpropyl)-2,7,7-trimethyl-5-(2-thienyl)-4,5,6,7-tetrahydropyrazolo[1,5-a]pyrimidine-3-carboxamide]"
9,131 to 132,"CCC(CC)(NC(=O)c1c(C)nn2c1N[C@H](c1ccccc1)CC2(C)C)c1ccc(Cl)cc1 [Example 1041, (5S)-N-(1-(4-chlorophenyl)-1-ethylpropyl)-2,7,7-trimethyl-5-phenyl-4,5,6,7-tetrahydropyrazolo[1,5-a]pyrimidine-3-carboxamide]"
10,149 to 150,"Cc1nn2c(c1C(=O)OC1C(C)(C)[C@H]3CC[C@]1(C)C3)NC(c1ccccc1)CC2(C)C (stereo partly drawn) (as salt: HCl) [Example 1141, (1R,4S)-1,3,3-trimethylbicyclo[2.2.1]hept-2-yl 2,7,7-trimethyl-5-phenyl-4,5,6,7-tetrahydropyrazolo[1,5-a]pyrimidine-3-carboxylate]"
11,120 to 122,"CCOC(=O)c1cnn2c1NC(c1ccc3ccccc3c1)CC2C(F)(F)F (stereo not shown) [Example 2, ethyl 5-(2-naphthyl)-7-(trifluoromethyl)-4,5,6,7-tetrahydropyrazolo[1,5-a]pyrimidine-3-carboxylate]"
12,143 to 145,"O=C(O)c1cnn2c1NC(c1ccc3ccccc3c1)CC2C(F)(F)F (stereo not shown) [Example 22, 5-(2-naphthyl)-7-(trifluoromethyl)-4,5,6,7-tetrahydropyrazolo[1,5-a]pyrimidine-3-carboxylic acid]"
13,120 to 121,"CCOC(=O)CCCCOc1ccc(C(CC)(CC)NC(=O)c2cnn3c2NC(c2ccccc2)CC3(C)C)cc1 (stereo not shown) [Example 817, ethyl 5-(4-(1-(((7,7-dimethyl-5-phenyl-4,5,6,7-tetrahydropyrazolo[1,5-a]pyrimidin-3-yl)carbonyl)amino)-1-ethyl-propyl)phenoxy)pentanoate]"
14,178.7 to 178.9,"CCC(CC)(NC(=O)c1cnn2c1NC(C1CCCCC1)CC2(C)C)c1ccc(C(F)(F)F)cc1 (stereo not shown) [Example 676, 5-cyclohexyl-N-(1-ethyl-1-(4-(trifluoromethyl)phenyl)propyl)-7,7-dimethyl-4,5,6,7-tetrahydropyrazolo[1,5-a]pyrimidine-3-carboxamide]"
15,180 to 181,"CC1(C)CC(c2ccccc2)Nc2c(C(=O)NC(c3ccc(Cl)cc3)c3ccc(Cl)cc3)cnn21 (stereo not shown) [Example 405, N-(bis(4-chlorophenyl)methyl)-7,7-dimethyl-5-phenyl-4,5,6,7-tetrahydropyrazolo[1,5-a]pyrimidine-3-carboxamide]"
16,168 to 169,"CCC(CC)(NC(=O)c1c(C)nn2c1N[C@@H](c1ccccc1)CC2(C)C)c1ccc(CO)cc1 (as salt: HCl) [Example 1075, (5R)-N-(1-ethyl-1-(4-(hydroxymethyl)phenyl)propyl)-2,7,7-trimethyl-5-phenyl-4,5,6,7-tetrahydropyrazolo[1,5-a]pyrimidine-3-carboxamide]"

row,melting point [°C],Compound
1,152 to 153,"CCC(CC)(NC(=O)c1cnn2c1NC(c1ccccc1)CC2(C)C)c1ccc(O)cc1 (stereo not shown) [Example 701, N-(1-ethyl-1-(4-hydroxyphenyl)propyl)-7,7-dimethyl-5-phenyl-4,5,6,7-tetrahydropyrazolo[1,5-a]pyrimidine-3-carboxamide]"
2,160 to 161,"CCC1(NC(=O)c2cnn3c2NC(c2ccccc2)CC3(C)C)CCC(C)CC1 (stereo not shown) [Example 612, N-(1-ethyl-4-methylcyclohexyl)-7,7-dimethyl-5-phenyl-4,5,6,7-tetrahydropyrazolo[1,5-a]pyrimidine-3-carboxamide]"
3,172 to 173,"CCC(CC)(NC(=O)c1cnn2c1NC(c1ccccc1)CC2(C)C)c1ccc(-c2ccc(OC)nc2)cc1 (stereo not shown) [Example 677, N-(1-ethyl-1-(4-(6-methoxy-3-pyridinyl)phenyl)propyl)-7,7-dimethyl-5-phenyl-4,5,6,7-tetrahydropyrazolo[1,5-a]pyrimidine-3-carboxamide]"
4,120 to 121,"CCC(CC)(NC(=O)c1cnn2c1N(C)C(c1ccccc1)CC2(C)C)c1ccc(C)cc1 (stereo not shown) (as salt: HCl) [Example 827, N-(1-ethyl-1-(4-methylphenyl)propyl)-4,7,7-trimethyl-5-phenyl-4,5,6,7-tetrahydropyrazolo[1,5-a]pyrimidine-3-carboxamide]"
5,139 to 140,"CCC(CC)(NC(=O)c1cnn2c1N[C@@H](c1ccccc1)CC2(C)C)c1ccc(C(C)(C)C)cc1 (as salt: HCl) [Example 1052, (5R)-N-(1-(4-tert-butylphenyl)-1-ethylpropyl)-7,7-dimethyl-5-phenyl-4,5,6,7-tetrahydropyrazolo[1,5-a]pyrimidine-3-carboxamide]"
6,190 to 192,"Cc1nn2c(c1C(=O)O)NC(c1ccccc1)CC2(C)C (single isomer, unassigned; (+)) [Example 1020, (+)-2,7,7-trimethyl-5-phenyl-4,5,6,7-tetrahydropyrazolo[1,5-a]pyrimidine-3-carboxylic acid]"
7,165 to 166,"CCC(CC)(NC(=O)c1cnn2c1NC(c1ccccc1)CC2C(F)(F)F)c1ccccc1 (stereo not shown) [Example 396, N-(1-ethyl-1-phenylpropyl)-5-phenyl-7-(trifluoromethyl)-4,5,6,7-tetrahydropyrazolo[1,5-a]pyrimidine-3-carboxamide]"
8,176 to 177,"CCCC(CC)(CC)NC(=O)c1c(C)nn2c1N[C@@H](c1ccccc1)CC2(C)C (as salt: HCl) [Example 1055, (5R)-N-(1,1-diethylbutyl)-2,7,7-trimethyl-5-phenyl-4,5,6,7-tetrahydropyrazolo[1,5-a]pyrimidine-3-carboxamide]"
9,187 to 188,"CC1(C)CC(c2ccccc2)Nc2c(C(=O)NC(C3CCCCC3)C3CCCCC3)cnn21 (stereo not shown) [Example 433, N-(dicyclohexylmethyl)-7,7-dimethyl-5-phenyl-4,5,6,7-tetrahydropyrazolo[1,5-a]pyrimidine-3-carboxamide]"
10,262 to 263,"O=C(NC1(C(=O)Nc2ccccc2)CCCCC1)c1cnn2c1N[C@H](c1ccccc1)C[C@@H]2C(F)(F)F (stereo in doubt) [Example 371, N-(1-(anilinocarbonyl)cyclohexyl)-5-phenyl-7-(trifluoromethyl)-4,5,6,7-tetrahydropyrazolo[1,5-a]pyrimidine-3-carboxamide]"
11,183 to 184,"CCc1nn2c(c1C(=O)NC(CC)(CC)c1ccc(Cl)cc1)NC(c1ccccc1)CC2(C)C (stereo not shown) [Example 758, N-(1-(4-chlorophenyl)-1-ethylpropyl)-2-ethyl-7,7-dimethyl-5-phenyl-4,5,6,7-tetrahydropyrazolo[1,5-a]pyrimidine-3-carboxamide]"
12,244 to 245,"O=C(CNC(=O)c1cnn2c1N[C@H](c1ccccc1)C[C@@H]2C(F)(F)F)c1cc2ccccc2o1 (stereo in doubt) [Example 285, N-(2-(1-benzofuran-2-yl)-2-oxoethyl)-5-phenyl-7-(trifluoromethyl)-4,5,6,7-tetrahydropyrazolo[1,5-a]pyrimidine-3-carboxamide]"
13,158 to 160,"O=C(O)c1cnn2c1NC(c1ccccc1)C1CCCCC12 (stereo not shown) [Example 39, 5-phenyl-4,5,5a,6,7,8,9,9a-octahydropyrazolo[1,5-a]quinazoline-3-carboxylic acid]"
14,153 to 154,"CCC(CC)(NC(=O)c1c(C)nn2c1NC(c1ccc(OC)cc1)CC2(C)C)c1ccc(C)cc1 (stereo not shown) (as salt: HCl) [Example 967, N-(1-ethyl-1-(4-methylphenyl)propyl)-5-(4-methoxyphenyl)-2,7,7-trimethyl-4,5,6,7-tetrahydropyrazolo[1,5-a]pyrimidine-3-carboxamide]"
15,177 to 178,"CCC(CC)(NC(=O)c1cnn2c1NC(c1ccccc1)CC2(C)C)c1ccc(SC)cc1 (stereo not shown) [Example 832, N-(1-ethyl-1-(4-(methylthio)phenyl)propyl)-7,7-dimethyl-5-phenyl-4,5,6,7-tetrahydropyrazolo[1,5-a]pyrimidine-3-carboxamide]"
